This test addresses T1, Angiotensin II Receptor (Bos taurus, UniProt P25104).
T1 construct: The brownish tissue forming the adrenal cortex is scraped off and finely minced with scissors before homogenization; tissue Maxwell-Cohen (local slaughter house); host or cells: beef adrenal cortex, microsomal (100,000 x g) membranes
T1 sequence (P25104 1-359): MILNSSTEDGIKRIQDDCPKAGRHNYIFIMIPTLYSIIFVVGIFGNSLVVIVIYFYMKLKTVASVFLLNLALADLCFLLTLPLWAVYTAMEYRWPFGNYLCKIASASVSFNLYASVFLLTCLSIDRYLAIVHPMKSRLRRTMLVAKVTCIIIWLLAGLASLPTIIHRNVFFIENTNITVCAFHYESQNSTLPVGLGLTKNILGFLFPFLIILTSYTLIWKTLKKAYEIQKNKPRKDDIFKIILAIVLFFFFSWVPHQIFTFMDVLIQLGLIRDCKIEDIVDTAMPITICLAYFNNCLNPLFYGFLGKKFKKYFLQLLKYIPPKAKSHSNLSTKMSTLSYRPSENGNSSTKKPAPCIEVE
Description: [125I](Sar1,Ile8)AngII receptor binding assay, bovine adrenal cortex membranes. Conditions: beef adrenal cortex membranes. An excerpt: Beef adrenals are obtained from a local slaughter house (Maxwell-Cohen). [^125 I](Sar^1,ILe^8)-AngII, S.A. 2200 Ci/mmole, is purchased from Dupont (NEN®, Boston, Mass.). All unlabeled AngII analogs, Dimethylsulfoxide (DMSO), nucleotides, bovine serum albumin (BSA) are purchased from Sigma Chemical Co., St. Louis, MO U.S.A.
Approximately sixteen (16) to twenty (20) beef adrenal glands are processed as follows: fresh adrenal glands received on crushed ice are cleaned of fatty tissues and the tough membranes encapsulating the glands are removed and discarded. The brownish tissue forming the adrenal cortex is scraped off and finely minced with scissors before homogenization. Care is taken to avoid contamination with medullary tissue during dissection. The scraped cortices are suspended in twenty volumes of an ice-cold buffer medium consisting of 10 mM Tris.HCl (pH 7.4 at 22° C.) and containing 1.0 mM EDTA and 0.2M sucrose. Unless otherwise indicated, all subsequent operations are done at 4° C. […] The homogenate is centrifuged first at low speed (3,000 ×g) for 10 min. […] A 100 ul aliquot is withdrawn and the protein content of the preparation is determined by the Lowry's method (Lowry, O.H., Rosebrough, N.F., Farr, A.L. and Randall, R.J., Protein measurement with Folin phenol reagent. J. Biol. Chem., […], 265-275, 1951). […]

The IC50 is the concentration that inhibits the measured activity by half. Compound `CCCCc1nc2ccc(C3=NN4CCCC4C3)cc2c(=O)n1Cc1ccc(-c2ccccc2-c2nnn[nH]2)cc1` (centres unmarked) [Example 10, 2-Butyl-6-(3a,4,5,6-tetrahydro-3H-pyrrolo[1,2-b]-pyrazol-2-yl)-3-[[2'-(1H-tetrazol-5-yl)[1,1'-biphenyl]-4-yl]methyl]-4(3H)-quinazolinone] had an IC50 of 102 nM.
On to `CCCCc1nc2ccc(C3=NN4CCCCC4C3)cc2c(=O)n1Cc1ccc(-c2ccccc2-c2nnn[nH]2)cc1` (centres unmarked) [Example 11], for which the IC50 was found to be 56.4 nM.

(Values after US5292742A, “Angiotensin II receptor blocking 2,3,6 substituted quinazolinones” (American Cyanamid Company, priority 1993, dated 1994).)
